ChEMBL document CHEMBL1201862, “PubChem BioAssay data set” (2004)
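How tested: cells in 96-well plates exposed to compound for 48 hours at five concentrations. GI50 marks 50% less growth.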 Activity calls are given as the source filed them. Rule as the data show it: active = GI50 up to about 1.1 µM and inactive = higher.

Experiments:
Assay in all cases: NCI-60 cell line screen, 48 h
SW-620 = system: SW-620
UACC-62 = system: UACC-62
SK-MEL-5 = system: SK-MEL-5
LXFL 529 = system: LXFL 529
SF-539 = system: SF-539
DLD-1 = system: DLD-1
SNB-75 = system: SNB-75
HT-29 = system: HT-29
UO-31 = system: UO-31
A549 = system: A549
KM12 = system: KM12
MOLT-4 = system: MOLT-4
ACHN = system: ACHN
CCRF-CEM = system: CCRF-CEM
UACC-257 = system: UACC-257
HCT-116 = system: HCT-116
HOP-18 = system: HOP-18
OVCAR-3 = system: OVCAR-3
SN12C = system: SN12C
SK-MEL-2 = system: SK-MEL-2
NCI-H522 = system: NCI-H522
DMS-273 = system: DMS-273
KM-20L2 = system: KM-20L2
786-0 = system: 786-0
OVCAR-5 = system: OVCAR-5
OVCAR-8 = system: OVCAR-8
SK-MEL-28 = system: SK-MEL-28
COLO 205 = system: COLO 205
NCI-H23 = system: NCI-H23
HL-60 = system: HL-60
SR = system: SR
Malme-3M = system: Malme-3M
U-251 = system: U-251
TK-10 = system: TK-10
SNB-78 = system: SNB-78
HOP-62 = system: HOP-62
DMS-114 = system: DMS-114
LOX IMVI = system: LOX IMVI
SK-OV-3 = system: SK-OV-3
M19-MEL = system: M19-MEL
A498 = system: A498
RXF 393 = system: RXF 393
NCI-H226 = system: NCI-H226
SNB-19 = system: SNB-19
M14 = system: M14
HOP-92 = system: HOP-92
HCT-15 = system: HCT-15
XF498 = system: XF498
IGROV-1 = system: IGROV-1
SF-295 = system: SF-295
SF-268 = system: SF-268
RPMI-8226 = system: RPMI-8226
K562 = system: K562
EKVX = system: EKVX
HCC 2998 = system: HCC 2998
OVCAR-4 = system: OVCAR-4
NCI-H460 = system: NCI-H460
CAKI-1 = system: CAKI-1

Measured: GI50

O=C(C(O)c1cn(Cc2ccccc2)c2ccccc12)N1CCCCC1 (stereo not given)
inactive: SW-620 > 100 µM | UACC-62 95.1 µM | SK-MEL-5 30.1 µM | LXFL 529 79.6 µM | SF-539 > 100 µM | DLD-1 > 100 µM | SNB-75 > 100 µM | HT-29 > 100 µM | UO-31 > 100 µM | A549 45 µM | KM12 > 100 µM | MOLT-4 39.9 µM | ACHN 53.5 µM | CCRF-CEM 67.1 µM | UACC-257 48.9 µM | HCT-116 > 100 µM | HOP-18 24.1 µM | OVCAR-3 50 µM | SN12C 82.6 µM | SK-MEL-2 > 100 µM | NCI-H522 44.4 µM | DMS-273 > 100 µM | KM-20L2 38.8 µM | 786-0 > 100 µM | OVCAR-5 > 100 µM | OVCAR-8 > 100 µM | SK-MEL-28 > 10 µM | COLO 205 > 100 µM | NCI-H23 > 10 µM | HL-60 > 100 µM | SR > 100 µM | Malme-3M > 100 µM | U-251 > 10 µM | TK-10 > 10 µM | SNB-78 > 10 µM | HOP-62 > 100 µM | DMS-114 > 100 µM | LOX IMVI > 100 µM | SK-OV-3 72.8 µM | M19-MEL > 100 µM | A498 > 100 µM | RXF 393 > 10 µM | NCI-H226 34.4 µM | SNB-19 > 100 µM | M14 > 100 µM | HOP-92 > 100 µM | XF498 93.1 µM | IGROV-1 30.4 µM | SF-295 76 µM | SF-268 83.2 µM | RPMI-8226 > 100 µM | K562 30.2 µM | EKVX 54.6 µM | HCC 2998 > 100 µM
76.4 µM: HCT-15

CC(=O)OC1COC(N2C(=O)/C(=N\NC(N)=S)c3cc(Br)ccc32)C(OC(C)=O)C1OC(C)=O (stereo not given)
61.9 µM: HCT-15
inactive: SW-620 77.8 µM | OVCAR-4 42.6 µM | UACC-62 35.6 µM | SK-MEL-5 85.9 µM | LXFL 529 25.5 µM | SF-539 43.5 µM | DLD-1 42.2 µM | HT-29 > 100 µM | A549 43.3 µM | KM12 39.4 µM | MOLT-4 39.3 µM | ACHN 60.3 µM | CCRF-CEM 5.77 µM | UACC-257 > 100 µM | HCT-116 27.2 µM | HOP-18 > 100 µM | OVCAR-3 51.5 µM | SN12C > 100 µM | SK-MEL-2 > 100 µM | NCI-H522 > 100 µM | DMS-273 38.5 µM | KM-20L2 > 100 µM | 786-0 > 100 µM | OVCAR-5 > 100 µM | NCI-H460 23.8 µM | OVCAR-8 49.1 µM | SK-MEL-28 25.4 µM | COLO 205 38.1 µM | NCI-H23 67.9 µM | HL-60 25.6 µM | SR 19.5 µM | Malme-3M 32.7 µM | U-251 53.5 µM | TK-10 > 100 µM | SNB-78 53.5 µM | HOP-62 98.6 µM | DMS-114 19.9 µM | LOX IMVI 38.9 µM | SK-OV-3 > 100 µM | CAKI-1 > 100 µM | M19-MEL 53.5 µM | RXF 393 63.5 µM | NCI-H226 > 100 µM | SNB-19 > 100 µM | M14 > 100 µM | HOP-92 > 100 µM | XF498 37.1 µM | IGROV-1 > 100 µM | SF-295 45.3 µM | SF-268 38.5 µM | RPMI-8226 17.6 µM | K562 48 µM | EKVX 56.1 µM | HCC 2998 > 100 µM
